Reference: patent US11466044B2 (WAYNE STATE UNIVERSITY, priority 2017, dated 2022)
Converted amounts (≈) assume the structure as drawn. Read-outs that look alike come from different tables or passages of the source.

Columns and labels:
[1] = tested on: Enterobacter cloacae AG290; test: MIC by broth microdilution, Enterobacter cloacae; assay type: cell-based; conditions: strain AG290 Enterobacter cloacae; read-out: MIC AG290 E. cloacae
[2] = tested on: Acinetobacter baumannii pittii AG225; test: MIC by broth microdilution, Acinetobacter baumannii; assay type: cell-based; conditions: strain AG225 Acinetobacter baumannii pittii
[3] = tested on: MRSA; test: MIC by broth microdilution, MRSA isolates; assay type: cell-based; conditions: Staphylococcus aureus, MRSA, Table 1 (Example 3)
[4] = tested on: cytosolic ribosome (human chimeric); assay type: biochemical; conditions: for Selectivity for Binding to the Bacterial Ribosome over the Cytosolic Ribosome: Table 3 (Example 3); for IC50: cytosolic, Table 4 (Example 3), read-out: IC50 Cyt
Excerpt: (§1) The antiribosomal activity of these compounds was investigated with cell-free translation assays using both wild type bacterial ribosomes and hybrid ribosomes carrying eukaryotic decoding A sites enabling the prediction of selectivity.

[5] = tested on: mitochondrial ribosome (human chimeric); assay type: biochemical; conditions: for Selectivity for Binding to the Bacterial Ribosome over the Mitochondrial Ribosome: Table 3 (Example 3); for IC50: mitochondrial, Table 4 (Example 3), read-out: IC50 Mit
Excerpt: as §1

[6] = tested on: Klebsiella pneumonia AG215; test: MIC by broth microdilution, Klebsiella pneumonia; assay type: cell-based; conditions: Klebsiella pneumoniae; strain AG215 Klebsiella pneumonia; read-out: MIC AG215 K. pneumon
[7] = tested on: N. gonorrhoeae; test: Disk diffusion, N. gonorrhoeae; assay type: cell-based; conditions: Neisseria gonorrhoeae
[8] = tested on: wild type bacterial ribosomes; test: in-vitro translation assay, bacterial ribosomes; assay type: biochemical; conditions: for IC50: bacterial ribosome, Table 4 (Example 3), read-out: IC50 Bac; for selectivity for the bacterial ribosome over mitochondrial (wild type, A1555G mutant) and cytosolic ribosomes, in words: compared with the parent compound
Excerpt: as §1

[9] = tested on: M. abscessus; test: MIC by broth microdilution, M. abscessus; assay type: cell-based; conditions: Mycobacteroides abscessus
[10] = tested on: E coli carrying specific resistance determinants; test: MIC by broth microdilution, E coli carrying specific resistance determinants; assay type: cell-based; conditions: for MIC: Escherichia coli
[11] = tested on: M. smegmatis SZ380; test: MIC by broth microdilution, M. smegmatis; conditions: Mycolicibacterium smegmatis
[12] = tested on: P aeruginosa; test: MIC by broth microdilution, P aeruginosa isolates; assay type: cell-based, Pseudomonas aeruginosa; conditions: strain AG220 Pseudomonas aeruginosa ATCC27853; read-out: MIC AG220 P. aerugin
[13] = tested on: E coli wild type; test: MIC by broth microdilution, wild type E coli; assay type: cell-based; conditions: for MIC: Escherichia coli
[14] = tested on: A1555G mutant mitochondrial ribosome (human chimeric); test: in-vitro translation assay, human chimeric ribosomes, A1555G mutant mitochondrial decoding site; assay type: biochemical; conditions: Table 3 (Example 3)
Excerpt: as §1

[15] = Casinelli et al., J Antibiotics 1978, 31, 378 and 382; cited from earlier work
[16] = clinical isolate AG038, read-out: MIC MRSA AG038
[17] = clinical isolate AG039, read-out: MIC MRSA AG039
[18] = clinical isolate AG042, read-out: MIC MRSA AG042
[19] = clinical isolate AG044, read-out: MIC MRSA AG044
[20] = ATCC19977, ATCC 19977 WT, Table 5 (Example 3), read-out: MIC M. abscessus ATCC 19977 WT
[21] = read-out: MIC M. abscessus engineered Δeis2
[22] = ATCC, Table 4 (Example 3), read-out: MIC M. abscessus ATCC
[23] = Clin. Isol., Table 4 (Example 3), read-out: MIC M. abscessus Clin. Isol.
[24] = read-out: MIC E. coli AAC(2′) AG106
[25] = read-out: MIC E. coli AAC(2′) pH434
[26] = read-out: MIC E. coli pGB2armA armA
[27] = read-out: MIC E. coli pH434 AAC(2′)-Ib
[28] = SZ380, read-out: MIC M. smegmatis SZ380 WT, SZ380 WT, Table 5 (Example 3)
[29] = SZ380, read-out: MIC SZ380 M. smegmatis, strain SZ380 Mycobacterium smegmatis
[30] = ATCC25922, strain AG212 E. coli (ATCC25922), read-out: MIC AG212 E. coli
[31] = WT, Table 4 (Example 3), read-out: MIC E. coli WT
[32] = WT, Table 5 (Example 3), read-out: MIC E. coli WT
[33] = clinical isolate AG001, Table 1 (Example 3), read-out: MIC E coli AG001
[34] = clinical isolate AG003, Table 1 (Example 3), read-out: MIC E coli AG003
[35] = clinical isolate AG055, Table 1 (Example 3), read-out: MIC E coli AG055

Row | Structure (SMILES) | MIC [1] [µg/mL] | MIC [2] [µg/mL] | MIC [3, 16] [µg/mL] | MIC [3, 17] [µg/mL] | MIC [3, 18] [µg/mL] | MIC [3, 19] [µg/mL] | Selectivity for Binding to the Bacterial Ribosome over the Cytosolic Ribosome [4] | IC50 [4] [µM] | Selectivity for Binding to the Bacterial Ribosome over the Mitochondrial Ribosome [5] | IC50 [5] [µM] | MIC [6] [µg/mL] | IC50 [8] [µM] | selectivity for the bacterial ribosome over mitochondrial (wild type, A1555G mutant) and cytosolic ribosomes, in words [8] | MIC [9, 20] [µg/mL] | MIC [9, 21] [µg/mL] | MIC [9, 22] [µg/mL] | MIC [9, 23] [µg/mL] | MIC [10, 24] [µg/mL] | MIC [10, 25] [µg/mL] | MIC [10, 26] [µg/mL] | further results
1 | CCNC1C(OC2C(N)CC(N)C(O)C2OC2OC(CO)C(OC3OC(CN)C(O)C(O)C3N)C2O)OC(CO)C(O)C1O (centres unmarked) [Compound 127] | 2 to 4 (≈ 3.11 to 6.21 µM) | 4 (≈ 6.21 µM) | 8 (≈ 12.4 µM) | > 128 | > 128 | 4 to 8 (≈ 6.21 to 12.4 µM) | 918 | 28 | 4715 | 141 | 2 (≈ 3.11 µM) | 0.03 | increased selectivity for the bacterial ribosome | 32 (≈ 49.7 µM) | 0.5 (≈ 0.777 µM) | 32 (≈ 49.7 µM) | 64 (≈ 99.4 µM) | 2 (≈ 3.11 µM) | 4 (≈ 6.21 µM) | 4 to 8 (≈ 6.21 to 12.4 µM) | zone of inhibition at 25 nmol/disc [7]: 9 mm; MIC [10, 27]: 4 µg/mL (≈ 6.21 µM); MIC [11, 28]: 4 µg/mL (≈ 6.21 µM); MIC [11, 29]: 4 µg/mL (≈ 6.21 µM); MIC [12]: > 64 µg/mL; MIC [13, 30]: 4 µg/mL (≈ 6.21 µM); MIC [13, 31]: 2 µg/mL (≈ 3.11 µM); MIC [13, 32]: 2 µg/mL (≈ 3.11 µM); MIC [13, 33]: 16 µg/mL (≈ 24.9 µM); MIC [13, 34]: 16 µg/mL (≈ 24.9 µM); MIC [13, 35]: 16 µg/mL (≈ 24.9 µM); Selectivity for Binding to the Bacterial Ribosome over the Mutant Mitochondrial Ribosome [14]: 1804; antibiotic potency compared with the parent compounds, in words [15]: comparable antibiotic potency to the parent compounds
2 | NCC1OC(OC2C(CO)OC(OC3C(O)C(N)CC(N)C3OC3OC(CN)C(O)C(O)C3O)C2O)C(N)C(O)C1O (centres unmarked) [Compound 119] | 1 (≈ 1.62 µM) | 1 (≈ 1.62 µM) | 2 (≈ 3.25 µM) | > 128 | > 128 | 2 (≈ 3.25 µM) | 3667 | 108 | 1222 | 36 | 0.5 (≈ 0.812 µM) | 0.03 | increased selectivity for the bacterial ribosome | 2 (≈ 3.25 µM) | 0.125 (≈ 0.203 µM) | 2 (≈ 3.25 µM) | 4 (≈ 6.5 µM) | 1 (≈ 1.62 µM) | 4 (≈ 6.5 µM) | 1 (≈ 1.62 µM) | effect of the AAC(2′) resistance determinant, in words ([10]; AAC(2′)): overcomes the effect of AAC(2′); MIC ([10]; read-out: MIC E coli AG106 AAC(2′)): 1 µg/mL (≈ 1.62 µM); MIC ([10]; read-out: MIC E. coli AG106 AAC(2′)-Ia): 1 µg/mL (≈ 1.62 µM); MIC [10, 27]: 4 µg/mL (≈ 6.5 µM); MIC [11, 28]: 0.5 µg/mL (≈ 0.812 µM); MIC [11, 29]: 0.5 µg/mL (≈ 0.812 µM); MIC [12]: > 64 µg/mL; MIC ([13]; AG006 Wild type, Table 2 (Example 3), read-out: MIC E coli AG006 Wild type): 0.5 µg/mL (≈ 0.812 µM); MIC ([13]; AG104 Wild type, Table 2 (Example 3), read-out: MIC E coli AG104 Wild type): 1 µg/mL (≈ 1.62 µM); MIC [13, 30]: 1 µg/mL (≈ 1.62 µM); MIC [13, 31]: 0.5 to 1 µg/mL (≈ 0.812 to 1.62 µM); MIC [13, 32]: 0.5 to 1 µg/mL (≈ 0.812 to 1.62 µM); MIC [13, 33]: 2 to 4 µg/mL (≈ 3.25 to 6.5 µM); MIC [13, 34]: 2 to 4 µg/mL (≈ 3.25 to 6.5 µM); MIC [13, 35]: 2 to 4 µg/mL (≈ 3.25 to 6.5 µM); antibacterial activity, in words ([13]; MRSA and E coli, compared with the parent compound): little to no loss of antibacterial activity; Selectivity for Binding to the Bacterial Ribosome over the Mutant Mitochondrial Ribosome [14]: 94; antibiotic potency compared with the parent compounds, in words [15]: comparable antibiotic potency to the parent compounds
